Test results: BigSolDB 2.1

CC(=O)Oc1ccc(C(c2ccc(OC(C)=O)cc2)c2ccccn2)cc1
solubility (mole fraction)
Conditions	278.15 K	283.15 K	288.15 K	293.15 K	298.15 K	303.15 K	308.15 K	313.15 K	318.15 K	323.15 K
in ethanol	0.000239	0.000333	0.000452	0.000618	0.000835	0.0011	0.00145	0.00192	0.0025	0.00322
in isopropanol	0.000113	0.000162	0.000225	0.000311	0.000425	0.000579	0.000777	0.00104	0.00139	0.00179
in methanol	0.000551	0.000716	0.000931	0.00119	0.0015	0.0019	0.00239	0.00292	0.00364	0.00449
in water	9.39e-08	1.13e-07	1.35e-07	1.62e-07	1.91e-07	2.25e-07	2.64e-07	3.08e-07	3.57e-07	4.13e-07
